From patent US6914057B1, “Inhibitor of cataract formation” (The Research Foundation of State University of New York, priority 1998, dated 2005)

Columns and labels:
[1] = rat; oral dose of 15 mg/kg; cited from earlier work
[2] = tested on: Type II ZDF/GMI diabetic rats; assay: Development of cataracts in Type II ZDF/GMI diabetic rats treated with tetracycline analogues; assay type: in vivo, rat; conditions: for percentage of Type II ZDF/GMI diabetic rats that developed cataracts: FIG. 1, treated diabetic rats, oral dose of 15 mg/kg
Description: Diabetics develop posterior subcapsular cataracts, characterized by a central opacity in the nucleus and cortex. […] In the current study, CMT-8 administration to the Type II diabetic rats reduced the incidence of cataract development by […] at five months. In fact, this therapeutic effect may have been underestimated since it was an unexpected finding and, therefore, was not documented at the earlier time points. The mechanisms by which Type II (and Type I) diabetes causes the development of these cataracts is not yet understood.
Specifically, approximately 60% of untreated Type II ZDF/GMI diabetic rats developed cataracts whereas approximately 42% of Type II ZDF/GMI diabetic rats treated with CMT-8 developed cataracts.
In particular, approximately 60% of Type II ZDF/GMI diabetic rats treated with doxycycline developed cataracts and approximately 70% of Type II ZDF/GMI diabetic rats treated with CMT-3 developed cataracts.
It is believed that the lack of efficacy for doxycycline and CMT-3 was due to the serum concentration achieved. […] The peak serum concentration for doxycycline was determined to be 0.9 μg/ml and the peak serum concentration for CMT-3 was determined to be 4.6 μg/ml. The peak serum concentration, though, for CMT-8 was determined to be 15 μg/ml. Liu et al., The Lipophilicity and Pharmacokdnetics of Different Chemically-Modified Tetracyclines (CMTs) In Vivo, Current Medicinal Chemistry, submitted for publication in September 1999. Clearly, administration of higher oral doses of CMT-3 and doxycycline would be needed to achieve serum concentrations similar to CMT-8.
FIGS. 2 and 3 provide a comparison of healthy untreated rats with untreated Type II ZDF/GMI diabetic rats and Type II ZDF/GMI diabetic rats treated with doxycycline and CMT-8.

| SMILES | peak serum concentration [1] [µg/mL] | percentage of Type II ZDF/GMI diabetic rats that developed cataracts [2] | cataract development in photographs compared with non-diabetic control rats (in words) ([2]; FIGS. 2 and 3, treated Type II ZDF/GMI diabetic rats) | reduction of the incidence of cataract development ([2]; Type II diabetic rats, at five months) [%] | prevention of cataract development (in words) ([2]; ZDF/Gmi-fa Type II diabetic rats, at five months) |
| --- | --- | --- | --- | --- | --- |
| NC(=O)C1=C(O)C[C@@H]2C[C@@H]3Cc4cccc(O)c4C(=O)C3=C(O)[C@]2(O)C1=O [CMT-3, 6-demethyl-6-deoxy-4-dedimethylaminotetracycline] | 4.6 | approximately 70% |  |  |  |
| CC1c2cccc(O)c2C(O)=C2C(=O)C3(O)C(O)=C(C(N)=O)C(=O)CC3C(O)C21 (stereo not drawn) [CMT-8, 5-hydroxy-6-α-deoxy-4-dedimethylaminotetracycline] | 15 | approximately 42% | Cataracts do not appear to have developed | 37 | appeared to prevent the development of these cataracts |
| C[C@H]1c2cccc(O)c2C(=O)C2=C(O)[C@]3(O)C(=O)C(C(N)=O)=C(O)[C@@H](N(C)C)[C@@H]3[C@@H](O)[C@@H]21 [doxycycline, reference compound] | 0.9 | approximately 60% |  |  |  |
